Test results from US8268881B2, “Carboxamide derivatives as muscarinic receptor antagonists” (Pfizer Limited, priority 2005, dated 2012).

molecular target: T1, human muscarinic M3 receptor (Homo sapiens, UniProt P20309); experiment: hM3 β-Lac potency assay (cell based β-lactamase); settings: CHO cells expressing human M3 receptor, NFAT β-lactamase reporter; […]; IC50 converted to Ki by Cheng-Prusoff; read-out: Cell based β-lactamase M3 Ki
T1 construct: expressed in transfected cells
Method: M3 potency was determined in CHO-K1 cells transfected with the NFAT-Betalactamase gene. CHO (Chinese Hamster Ovary) cells recombinantly expressing the human muscarinic M3 receptor were transfected with the NFAT_β-Lac_Zeo plasmid.
The cells were re-suspended at 2×10^5 cells/ml in growth medium (composition as described above). […] Inhibition curves were plotted and IC50 values generated using a 4-parameter sigmoid fit and converted to Ki values using the Cheng-Prusoff correction and the KD value for carbamyl choline in the assay.

T1 sequence (P20309 whole entry): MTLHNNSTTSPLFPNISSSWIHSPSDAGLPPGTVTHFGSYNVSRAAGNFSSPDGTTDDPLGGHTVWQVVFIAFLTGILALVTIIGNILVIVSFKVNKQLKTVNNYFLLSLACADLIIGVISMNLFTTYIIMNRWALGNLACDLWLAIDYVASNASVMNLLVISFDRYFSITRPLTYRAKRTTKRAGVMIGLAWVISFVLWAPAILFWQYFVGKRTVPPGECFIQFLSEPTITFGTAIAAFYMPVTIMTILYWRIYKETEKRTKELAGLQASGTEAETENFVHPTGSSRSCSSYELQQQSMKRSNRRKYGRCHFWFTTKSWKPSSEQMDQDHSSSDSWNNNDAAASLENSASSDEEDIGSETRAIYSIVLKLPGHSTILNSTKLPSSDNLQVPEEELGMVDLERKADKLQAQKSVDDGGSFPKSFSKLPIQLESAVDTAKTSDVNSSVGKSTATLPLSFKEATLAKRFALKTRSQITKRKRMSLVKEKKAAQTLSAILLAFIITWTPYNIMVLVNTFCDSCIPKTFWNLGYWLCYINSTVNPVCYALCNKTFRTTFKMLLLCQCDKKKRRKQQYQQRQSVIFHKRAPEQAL

SMILES	Ki
CC(C)(CCC(C#N)(c1ccccc1)c1ccccc1)N1CCC(OCc2cccc(O)c2)CC1 [Example 88, 5-{4-[(3-Hydroxybenzyl)oxy]piperidin-1-yl}-5-methyl-2,2-diphenylhexanenitrile]	71.9 nM

same assay, conditions: CHO cells expressing human M3 receptor, NFAT β-lactamase reporter; inhibition of 80 nM carbamyl choline signal, 4 h; IC50 converted to Ki by Cheng-Prusoff; read-out: Cell based β-lactamase M3 Ki

SMILES	Ki
CC(C)(CCC(C(N)=O)(c1ccccc1)c1ccccc1)N1CC[C@H](Oc2cccc(O)c2F)C1 [Example 53, 5-[(3S)-3-(2-Fluoro-3-Hydroxy-phenoxy)-pyrrolidin-1-yl]-5-methyl-2,2-diphenyl-hexanoic acid amide]	0.334 nM
CC(C)(CCC(C(N)=O)(c1ccccc1)c1ccccc1)N1CC[C@@H](OCc2cccc(O)c2)C1 [Example 54, 5-[(3R)-3-(3-Hydroxy-benzyloxy)-pyrrolidin-1-yl]-5-methyl-2,2-diphenyl-hexanoic acid amide]	3.62 nM
CC(C)(CCC(C#N)(c1ccccc1)c1ccccc1)N1CC[C@H](OCc2cccc(-c3ccccc3O)c2)C1 [Example 58, 5-{(3S)-3-[(2′-Hydroxybiphenyl-3-yl)methoxy]pyrrolidin-1-yl}-5-methyl-2,2-diphenylhexanenitrile]	1580 nM
CC(C)(CCC(C(N)=O)(c1ccccc1)c1ccccc1)N1CC[C@H](OCc2cccc(-c3cccc(O)c3)c2)C1 [Example 61, 5-{(3S)-3-[(3′-Hydroxybiphenyl-3-yl)methoxy]pyrrolidin-1-yl}-5-methyl-2,2-diphenylhexanamide]	9.85 nM
CC(C)(CCC(C#N)(c1ccccc1)c1ccccc1)N1CC[C@H](OCc2cccc(-c3ccc(O)cc3)c2)C1 [Example 62, 5-[(3S)-3-[(4′-Hydroxybiphenyl-3-yl)methoxy]-pyrrolidin-1-yl]5-methyl-2,2-diphenylhexanenitrile]	57.4 nM
CC(C)(CCC(C(N)=O)(c1ccccc1)c1ccccc1)N1CC[C@H](OCc2cccc(-c3ccc(O)cc3)c2)C1 [Example 63, 5-{(3S)-3-[(4′-Hydroxybiphenyl-3-yl)methoxy]pyrrolidin-1-yl}-5-methyl-2,2-diphenylhexanamide]	28.7 nM
CC(C)(CCC(C(N)=O)(c1ccccc1)c1ccccc1)N1CC[C@H](OCc2cccc(-c3ccccc3O)c2)C1 [Example 64, 5-{(3S)-3-[(2′-Hydroxybiphenyl-3-yl)methoxy]pyrrolidin-1-yl}-5-methyl-2,2-diphenylhexanamide]	65.6 nM
CC(C)(CCC(C(N)=O)(c1ccccc1)c1ccccc1)N1CC[C@H](OCc2ccc(-c3cccc(O)c3)cc2)C1 [Example 65, 5-[(3S)-3-[(3′-Hydroxybiphenyl-4-yl)methoxy]pyrrolidin-1-yl]5-methyl-2,2-diphenylhexanamide]	62.7 nM
CC(C)(CCC(C(N)=O)(c1ccccc1)c1ccccc1)N1CC[C@H](OCc2cccc(-c3ccccc3)c2)C1 [Example 66, 5-[(3S)-3-(Biphenyl-3-ylmethoxy)pyrrolidin-1-yl]-5-methyl-2,2-diphenylhexanamide]	45.4 nM
CC(C)(CCC(C(N)=O)(c1ccccc1)c1ccccc1)N1CC[C@@H](OCc2ccc(F)c(O)c2)C1 [Example 67, 5-[(3R)-3-(4-Fluoro-3-hydroxy-benzyloxy)-pyrrolidin-1-yl]-5-methyl-2,2-diphenylhexanamide]	10.7 nM
CC(C)(CCC(C(N)=O)(c1ccccc1)c1ccccc1)N1CC[C@H](Oc2cc(O)cc(C#N)c2)C1 [Example 68, 5-[(3S)-3-(3-Cyano-5-hydroxy-phenoxy)-pyrrolidin-1-yl]-5-methyl-2,2-diphenylhexanamide]	9.88 nM
COc1ccc(C#N)c(O[C@H]2CCN(C(C)(C)CCC(C(N)=O)(c3ccccc3)c3ccccc3)C2)c1 [Example 69, 5-[(3S)-3-(2-Cyano-5-methoxy-phenoxy)-pyrrolidin-1-yl]-5-methyl-2,2-diphenylhexanamide]	111 nM
CC(C)(CCC(C(N)=O)(c1ccccc1)c1ccccc1)N1CC[C@H](Oc2ccc3ccc(O)cc3c2)C1 [Example 70, 5-[(3S)-3-[(7-Hydroxy-2-naphthyl)oxy]pyrrolidin-1-yl]-5-methyl-2,2-diphenylhexanamide]	19.1 nM
CC(C)(CCC(C(N)=O)(c1ccccc1)c1ccccc1)N1CC[C@H](Oc2ccc(-c3ccccc3)cc2)C1 [Example 71, 5-[(3S)-3-(4-Phenylphenoxy)pyrrolidin-1-yl]-5-methyl-2,2-diphenylhexanamide]	113 nM
CC(C)(CCC(C(N)=O)(c1ccccc1)c1ccccc1)N1CC[C@@H](Oc2ccc(O)c(Cl)c2)C1 [Example 72, 5-[(3R)-3-(3-chloro-4-hydroxyphenoxy)pyrrolidin-1-yl]-5-methyl-2,2-diphenylhexanamide]	1.23 nM
COc1cc(F)cc(O[C@@H]2CCN(C(C)(C)CCC(C(N)=O)(c3ccccc3)c3ccccc3)C2)c1 [Example 73, 5-[(3R)-3-(3-Fluoro-5-methoxy-phenoxy)-pyrrolidin-1-yl]-5-methyl-2,2-diphenylhexanamide]	0.852 nM
CC(C)(CCC(C(N)=O)(c1ccccc1)c1ccccc1)N1CC[C@@H](Oc2cc(O)cc(F)c2)C1 [Example 74, 5-[(3R)-3-(3-Fluoro-5-hydroxy-phenoxy)-pyrrolidin-1-yl]-5-methyl-2,2-diphenyl-hexanamide]	< 0.56 nM
CC(C)(CCC(C(N)=O)(c1ccccc1)c1ccccc1)N1CC[C@@H](Oc2cccc(O)c2F)C1 [Example 76, 5-[(3R)-3-(2-Fluoro-3-hydroxy-phenoxy)-pyrrolidin-1-yl]-5-methyl-2,2-diphenylhexanamide]	0.582 nM

SMILES	Ki
COc1cccc(O[C@@H]2CCN(C(C)(C)CCC(C(N)=O)(c3ccccc3)c3ccccc3)C2)c1Cl [Example 77, 5-[(3R)-3-(2-Chloro-3-methoxy-phenoxy)-pyrrolidin-1-yl]-5-methyl-2,2-diphenylhexanamide]	4.96 nM
CC(C)(CCC(C(N)=O)(c1ccccc1)c1ccccc1)N1CC[C@@H](Oc2cccc(O)c2Cl)C1 [Example 78, 5-[(3R)-3-(2-Chloro-3-hydroxy-phenoxy)-pyrrolidin-1-yl]-5-methyl-2,2-diphenylhexanamide]	0.917 nM
CC(C)(CCC(C(N)=O)(c1ccccc1)c1ccccc1)N1CC[C@@H](OCc2ccc(Cl)c(O)c2)C1 [Example 79, 5-[(3R)-3-(4-Chloro-3-hydroxy-benzyloxy)-pyrrolidin-1-yl]-5-methyl-2,2-diphenyl hexanamide]	16.2 nM
COc1cc(O[C@@H]2CCN(C(C)(C)CCC(C(N)=O)(c3ccccc3)c3ccccc3)C2)ccc1Cl [Example 81, 5-[(3R)-3-(3-methoxy-4-chloro-Phenoxy)-pyrrolidin-1-yl]-5-methyl-2,2-diphenylhexanamide]	35.4 nM
CC(C)(CCC(C(N)=O)(c1ccccc1)c1ccccc1)N1CC[C@@H](Oc2ccc(Cl)c(O)c2)C1 [Example 82, 5-[(3R)-3-(3-hydroxy-4-chloro-phenoxy)-pyrrolidin-1-yl]-5-methyl-2,2-diphenylhexanamide]	7.96 nM
CC(C)(CCC(C(N)=O)(c1ccccc1)c1ccccc1)N1CC[C@@H](Oc2ccc(C#N)c(O)c2)C1 [Example 83, 5-[(3R)-3-(3-hydroxy-4-cyano-phenoxy)-pyrrolidin-1-yl]-5-methyl-2,2-diphenylhexanamide]	30 nM
COc1cccc(CO[C@H]2CCN(C(C)(C)CCC(C(N)=O)(c3ccccc3)c3ccccc3)C2)c1 [Example 84, 5-[(3S)-3-(3-methoxy-benzyloxy)pyrrolidin-1-yl]-5-methyl-2,2-diphenylhexanamide]	6.97 nM
CC(C)(CCC(C(N)=O)(c1ccccc1)c1ccccc1)N1CC[C@@H](OCc2cccc(O)c2Cl)C1 [Example 85, 5-[(3R)-3-(2-Chloro-3-hydroxy-benzyloxy)-pyrrolidin-1-yl]-5-methyl-2,2-diphenylhexanamide]	3.19 nM
CC(C)(CCC(C#N)(c1ccccc1)c1ccccc1)N1CCC(Oc2ccccc2)CC1 [Example 86, 5-Methyl-5-(4-phenoxypiperidin-1-yl)-2,2-diphenylhexanenitrile]	1.26 nM
CC(C)(CCC(C#N)(c1ccccc1)c1ccccc1)N1CCC(OCc2ccccc2)CC1 [Example 89, 5-[4-(Benzyloxy)piperidin-1-yl]-5-methyl-2,2-diphenylhexanenitrile]	159 nM
CC(C)(CCC(C(N)=O)(c1ccccc1)c1ccccc1)N1CCC(Oc2ccccc2)CC1 [Example 90, 5-Methyl-5-(4-Phenoxypiperidin-1-yl)-2,2-diphenylhexanamide]	0.268 nM
CC(C)(CCC(C(N)=O)(c1ccccc1)c1ccccc1)N1CCC(OCc2cccc(Br)c2)CC1 [Example 91, 5-{4-[(3-Bromobenzyl)oxy]piperidin-1-yl}-5-methyl-2,2-diphenylhexanamide]	22.6 nM
CC(C)(CCC(C(N)=O)(c1ccccc1)c1ccccc1)N1CCC(OCc2ccccc2)CC1 [Example 92, 5-[4-(Benzyloxy)piperidin-1-yl]-5-methyl-2,2-diphenylhexanamide]	2.13 nM
CC(C)(CCC(C(N)=O)(c1ccccc1)c1ccccc1)N1CCC(Oc2cc(O)c(Cl)cc2Cl)CC1 [Example 93, 5-[4-(2,4-Dichloro-5-hydroxy-phenoxy)-piperidin-1-yl]-5-methyl-2,2-diphenylhexanoic acid amide]	26.8 nM
CC(C)(CCC(C(N)=O)(c1ccccc1)c1ccccc1)N1CCC(Oc2cc(F)c(C#N)cc2F)CC1 [Example 94, 5-[4-(4-Cyano-2,5-difluoro-phenoxy)-piperidin-1-yl]-5-methyl-2,2-diphenylhexanoic acid amide]	12.4 nM
Cc1c(O)cccc1OC1CCN(C(C)(C)CCC(C(N)=O)(c2ccccc2)c2ccccc2)CC1 [Example 96, 5-[4-(3-hydroxy-2-methylphenoxy)piperidin-1-yl]-5-methyl-2,2-diphenylhexanamide]	6.51 nM
CC(C)(CCC(C(N)=O)(c1ccccc1)c1ccccc1)N1CCC(OCc2cccc(-c3cccc(O)c3)c2)CC1 [Example 98, 5-{4-[(3′-hydroxybiphenyl-3-yl)methoxy]piperidin-1-yl}-5-methyl-2,2-diphenylhexanamide]	139 nM
